# Test results taken from patent US20250282794A1 (CURADEV PHARMA LTD, priority 2022, published 2025).
# Molecular target: recombinant full length HPK-1 enzyme (Homo sapiens (Human), UniProt Q92918)
# Assay: HPK-1 biochemical enzyme assay (ADP-Glo kinase inhibition)
# Conditions: recombinant full length HPK-1 6.8 nM, 10 μM ATP, 12.5 μM MBP, 30 mins at 25° C.
# Procedure, shortened: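 Recombinant full-length human HPK-1 (6.8 nM) incubated 30 min at 25° C. with 10 μM ATP and 12.5 μM swine MBP in 40 mM Tris pH 7.4, 20 mM MgCl2, 50 μM DTT, 0.1 mg/mL BSA. ADP measured by ADP-Glo; IC50 from 10 concentrations, normalized to no-enzyme and vehicle controls.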
# Chain of recombinant full length HPK-1 enzyme (Q92918 whole entry, species assumed): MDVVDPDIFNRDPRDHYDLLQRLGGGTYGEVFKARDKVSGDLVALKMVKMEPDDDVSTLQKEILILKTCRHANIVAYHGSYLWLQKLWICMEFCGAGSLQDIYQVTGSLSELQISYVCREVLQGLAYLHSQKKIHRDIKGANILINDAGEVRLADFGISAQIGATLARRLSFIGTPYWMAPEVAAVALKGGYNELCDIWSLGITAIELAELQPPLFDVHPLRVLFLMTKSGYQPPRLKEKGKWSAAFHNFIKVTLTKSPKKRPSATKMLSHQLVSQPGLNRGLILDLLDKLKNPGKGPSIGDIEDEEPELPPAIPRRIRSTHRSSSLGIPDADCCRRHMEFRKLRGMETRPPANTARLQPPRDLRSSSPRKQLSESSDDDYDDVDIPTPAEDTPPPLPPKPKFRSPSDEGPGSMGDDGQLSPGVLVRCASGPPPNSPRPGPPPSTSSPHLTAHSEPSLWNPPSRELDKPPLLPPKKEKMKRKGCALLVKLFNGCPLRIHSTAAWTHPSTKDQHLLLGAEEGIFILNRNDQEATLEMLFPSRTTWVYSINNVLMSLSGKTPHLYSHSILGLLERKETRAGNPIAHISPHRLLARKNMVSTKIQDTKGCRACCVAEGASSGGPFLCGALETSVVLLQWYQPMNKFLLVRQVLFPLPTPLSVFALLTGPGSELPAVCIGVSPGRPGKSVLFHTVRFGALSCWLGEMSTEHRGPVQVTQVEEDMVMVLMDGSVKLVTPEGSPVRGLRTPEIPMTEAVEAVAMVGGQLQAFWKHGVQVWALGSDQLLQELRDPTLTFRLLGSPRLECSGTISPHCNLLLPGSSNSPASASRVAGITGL
row,IC50 [µM],SMILES
1,≤ 0.01,"Cc1c(Nc2cc[nH]c(=O)c2C(=O)Nc2ccc(N3CCN(C4COC4)CC3)cc2)cnc2c1NCCO2 [Example 256, 4-((8-methyl-2,3-dihydro-1H-pyrido[2,3-b][1,4]oxazin-7-yl)amino)-N-(4-(4-(oxetan-3-yl)piperazin-1-yl)phenyl)-2-oxo-1,2-dihydropyridine-3-carboxamide]"
2,0.01 to 0.1,"Cc1c(Nc2cc[nH]c(=O)c2C(=O)Nc2ccc3nc[nH]c3c2)cnc2c1NCCO2 [Example 257, N-(1H-benzo[d]imidazol-6-yl)-4-((8-methyl-2,3-dihydro-1H-pyrido[2,3-b][1,4]oxazin-7-yl)amino)-2-oxo-1,2-dihydropyridine-3-carboxamide]"
3,0.01 to 0.1,"Cc1c(Nc2cc[nH]c(=O)c2C(=O)Nc2ccc3c(c2)NC(=O)CC3)cnc2c1NCCO2 [Example 258, 4-((8-methyl-2,3-dihydro-1H-pyrido[2,3-b][1,4]oxazin-7-yl)amino)-2-oxo-N-(2-oxo-1,2,3,4-tetrahydroquinolin-7-yl)-1,2-dihydropyridine-3-carboxamide]"
4,≤ 0.01,"Cc1c(Nc2cc[nH]c(=O)c2C(=O)Nc2ccc(N3CCN(C4CCCC4)CC3)c(F)c2)cnc2c1NCCO2 [Example 259, N-(4-(4-cyclopentylpiperazin-1-yl)-3-fluorophenyl)-4-((8-methyl-2,3-dihydro-1H-pyrido[2,3-b][1,4]oxazin-7-yl)amino)-2-oxo-1,2-dihydropyridine-3-carboxamide]"
5,0.1 to 1,"Cc1c(Nc2cc[nH]c(=O)c2C(=O)Nc2ccc3c(c2)C(=O)NCC3)cnc2c1NCCO2 [Example 260, 4-((8-methyl-2,3-dihydro-1H-pyrido[2,3-b][1,4]oxazin-7-yl)amino)-2-oxo-N-(1-oxo-1,2,3,4-tetrahydroisoquinolin-7-yl)-1,2-dihydropyridine-3-carboxamide]"
6,≤ 0.01,"Cc1c(Nc2cc[nH]c(=O)c2C(=O)Nc2ccc(N3CCN(C)CC3)c(Cl)c2)cnc2c1NCCO2 [Example 261, N-(3-chloro-4-(4-methylpiperazin-1-yl)phenyl)-4-((8-methyl-2,3-dihydro-1H-pyrido[2,3-b][1,4]oxazin-7-yl)amino)-2-oxo-1,2-dihydropyridine-3-carboxamide]"
7,0.01 to 0.1,"Cc1c(Nc2cc[nH]c(=O)c2C(=O)Nc2ccc(N3CCN(S(C)(=O)=O)CC3)cc2)cnc2c1NCCO2 [Example 262, 4-((8-methyl-2,3-dihydro-1H-pyrido[2,3-b][1,4]oxazin-7-yl)amino)-N-(4-(4-(methylsulfonyl)piperazin-1-yl)phenyl)-2-oxo-1,2-dihydropyridine-3-carboxamide]"
8,≤ 0.01,"Cc1c(Nc2cc[nH]c(=O)c2C(=O)Nc2ccc(N3CCN(C)CC3)c(N)c2)cnc2c1NCCO2 [Example 263, N-(3-Amino-4-(4-methylpiperazin-1-yl)phenyl)-4-((8-methyl-2,3-dihydro-1H-pyrido[2,3-b][1,4]oxazin-7-yl)amino)-2-oxo-1,2-dihydropyridine-3-carboxamide]"
9,0.01 to 0.1,"CCn1nccc1-c1ccc(NC(=O)c2c(Nc3cnc4c(c3C)NCCO4)cc[nH]c2=O)cc1 [Example 264, N-(4-(1-ethyl-1H-pyrazol-5-yl)phenyl)-4-((8-methyl-2,3-dihydro-1H-pyrido[2,3-b][1,4]oxazin-7-yl)amino)-2-oxo-1,2-dihydropyridine-3-carboxamide]"
10,0.01 to 0.1,"CCn1nc(C(F)(F)F)cc1-c1ccc(NC(=O)c2c(Nc3cnc4c(c3C)NCCO4)cc[nH]c2=O)cc1 [Example 265, N-(4-(1-ethyl-3-(trifluoromethyl)-1H-pyrazol-5-yl)phenyl)-4-((8-methyl-2,3-dihydro-1H-pyrido[2,3-b][1,4]oxazin-7-yl)amino)-2-oxo-1,2-dihydropyridine-3-carboxamide]"
11,≤ 0.01,"Cc1c(Nc2cc[nH]c(=O)c2C(=O)Nc2ccc(N3CCN(C)C[C@@H]3C)cc2)cnc2c1NCCO2 [Example 266, (S)-N-(4-(2,4-dimethylpiperazin-1-yl)phenyl)-4-((8-methyl-2,3-dihydro-1H-pyrido[2,3-b][1,4]oxazin-7-yl)amino)-2-oxo-1,2-dihydropyridine-3-carboxamide]"
12,0.01 to 0.1,"Cc1c(Nc2cc[nH]c(=O)c2C(=O)Nc2ccc(N3CCN(C)CC3=O)cc2)cnc2c1NCCO2 [Example 267, 4-((8-methyl-2,3-dihydro-1H-pyrido[2,3-b][1,4]oxazin-7-yl)amino)-N-(4-(4-methyl-2-oxopiperazin-1-yl)phenyl)-2-oxo-1,2-dihydropyridine-3-carboxamide]"
13,0.01 to 0.1,"Cc1c(Nc2cc[nH]c(=O)c2C(=O)Nc2ccc(N3CCNC(=O)C3)cc2)cnc2c1NCCO2 [Example 268, 4-((8-methyl-2,3-dihydro-1H-pyrido[2,3-b][1,4]oxazin-7-yl)amino)-2-oxo-N-(4-(3-oxopiperazin-1-yl)phenyl)-1,2-dihydropyridine-3-carboxamide]"
14,0.01 to 0.1,"Cc1c(Nc2cc[nH]c(=O)c2C(=O)Nc2ccc3c(c2)OCC(=O)N3)cnc2c1NCCO2 [Example 269, 4-((8-methyl-2,3-dihydro-1H-pyrido[2,3-b][1,4]oxazin-7-yl)amino)-2-oxo-N-(3-oxo-3,4-dihydro-2H-benzo[b][1,4]oxazin-7-yl)-1,2-dihydropyridine-3-carboxamide]"
15,≤ 0.01,"Cc1c(Nc2cc[nH]c(=O)c2C(=O)Nc2ccc(N3CCN(C)CC3)c(Br)c2)cnc2c1NCCO2 [Example 270, N-(3-bromo-4-(4-methylpiperazin-1-yl)phenyl)-4-((8-methyl-2,3-dihydro-1H-pyrido[2,3-b][1,4]oxazin-7-yl)amino)-2-oxo-1,2-dihydropyridine-3-carboxamide]"
16,0.01 to 0.1,"Cc1c(Nc2cc[nH]c(=O)c2C(=O)Nc2ccc(-c3ccnn3C(C)C)cc2)cnc2c1NCCO2 [Example 271, N-(4-(1-isopropyl-1H-pyrazol-5-yl)phenyl)-4-((8-methyl-2,3-dihydro-1H-pyrido[2,3-b][1,4]oxazin-7-yl)amino)-2-oxo-1,2-dihydropyridine-3-carboxamide]"
17,0.01 to 0.1,"Cc1c(Nc2cc[nH]c(=O)c2C(=O)Nc2ccc(N3CCN(C)C(=O)C3)cc2)cnc2c1NCCO2 [Example 272, 4-((8-methyl-2,3-dihydro-1H-pyrido[2,3-b][1,4]oxazin-7-yl)amino)-N-(4-(4-methyl-3-oxopiperazin-1-yl)phenyl)-2-oxo-1,2-dihydropyridine-3-carboxamide]"
18,0.1 to 1,"Cc1c(Nc2cc[nH]c(=O)c2C(=O)Nc2ccc3ncc(O)nc3c2)cnc2c1NCCO2 [Example 273, N-(3-hydroxyquinoxalin-6-yl)-4-((8-methyl-2,3-dihydro-1H-pyrido[2,3-b][1,4]oxazin-7-yl)amino)-2-oxo-1,2-dihydropyridine-3-carboxamide]"
19,≤ 0.01,"Cc1c(Nc2cc[nH]c(=O)c2C(=O)Nc2ccc(N3CCC(N4CCN(C)CC4)CC3)cc2)cnc2c1NCCO2 [Example 274, 4-((8-methyl-2,3-dihydro-1H-pyrido[2,3-b][1,4]oxazin-7-yl)amino)-N-(4-(4-(4-methylpiperazin-1-yl)piperidin-1-yl)phenyl)-2-oxo-1,2-dihydropyridine-3-carboxamide]"
20,≤ 0.01,"COCCN1CCC(c2ccc(NC(=O)c3c(Nc4cnc5c(c4C)NCCO5)cc[nH]c3=O)cc2F)CC1 [Example 276, N-(3-fluoro-4-(1-(2-methoxyethyl)piperidin-4-yl)phenyl)-4-((8-methyl-2,3-dihydro-1H-pyrido[2,3-b][1,4]oxazin-7-yl)amino)-2-oxo-1,2-dihydropyridine-3-carboxamide]"
